# Results from US20190192697A1, “CHEMICAL PROBES OF LYSYL OXIDASK-LIKE 2 AND USES THEREOF” (PHARMAKEA, INC., priority 2016, published 2019).
# pIC50: −log10 of the molar value. Structures can show the parent of a compound that is named as a salt.
# Molecular target: T1, LOXL2 (Homo sapiens, UniProt Q9Y4K0)
# T1 sequence (Q9Y4K0 26-774): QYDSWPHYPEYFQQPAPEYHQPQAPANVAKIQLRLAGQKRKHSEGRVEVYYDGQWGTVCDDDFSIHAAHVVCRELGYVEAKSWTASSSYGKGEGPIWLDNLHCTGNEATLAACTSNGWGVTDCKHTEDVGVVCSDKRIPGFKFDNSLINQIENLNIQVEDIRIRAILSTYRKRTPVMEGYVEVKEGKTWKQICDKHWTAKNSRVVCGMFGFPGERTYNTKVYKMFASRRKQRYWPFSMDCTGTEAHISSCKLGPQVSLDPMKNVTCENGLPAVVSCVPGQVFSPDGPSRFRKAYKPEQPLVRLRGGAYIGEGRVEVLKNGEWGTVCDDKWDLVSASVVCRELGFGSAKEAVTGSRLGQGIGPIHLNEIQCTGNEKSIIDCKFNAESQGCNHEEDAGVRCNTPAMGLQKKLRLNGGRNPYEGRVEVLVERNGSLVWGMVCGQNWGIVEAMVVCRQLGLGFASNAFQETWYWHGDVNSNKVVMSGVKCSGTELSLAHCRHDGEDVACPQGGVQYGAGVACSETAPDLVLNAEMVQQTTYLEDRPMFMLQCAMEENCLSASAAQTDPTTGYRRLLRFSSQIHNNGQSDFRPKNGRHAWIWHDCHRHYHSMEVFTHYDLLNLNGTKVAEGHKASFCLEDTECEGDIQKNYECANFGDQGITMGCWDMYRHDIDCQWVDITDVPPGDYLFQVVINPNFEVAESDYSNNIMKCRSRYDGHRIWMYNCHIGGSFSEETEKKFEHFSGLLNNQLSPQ
# Assay: Human LOXL2 amine oxidase activity assay (Amplex Red)
# Assay type: biochemical
# Set-up: expressed in transfected cells; host or cells: CHO cells stably expressing human LOXL2; 10-20x concentrated conditioned media
# Conditions: concentrated conditioned media from CHO cells expressing human LOXL2; 2 h at 37° C. pre-incubation
# Method: LOXL2 amine oxidase activity is evaluated by measuring Amplex Red fluorescence using 10-20× concentrated conditioned media from CHO cells stably expressing human LOXL2. To assay for amine oxidase activity, 10 μL of the concentrated conditioned media is incubated with 2 μL of test compound in DMSO and 73 μL Assay Buffer (50 mM Borate Buffer, pH8) for 2 h at 37° C. After the 2 h incubation, 5 μL of 10 mM 1,5-diaminopentane (DAP) diluted in Assay Buffer and 10 μL of Amplex Red Mix (8.5 μL Assay Buffer+0.5 μL of 10 mM Amplex Red+1 μL of 500 U/mL Horseradish Peroxidase) are added and the plate mixed and immediately placed on the FlexStaion for fluorescence measurements. Fluorescence is read in kinetic mode every 2 min for 1 hour at excitation=544 nm and emission=590 nm. The amine oxidase activity is calculated from the slope of the linear portion of the curve.
row,SMILES,pIC50
1,"NCc1cc(Oc2cccc(C(=O)NCCCCCNC(=O)CCCC[C@@H]3SC[C@@H]4NC(=O)N[C@@H]43)c2)nc(C(F)(F)F)c1 [Compound 1-1, 3-((4-(Aminomethyl)-6-(trifluoromethyl)pyridin-2-yl)oxy)-N-(5-(5-((3aS,4S,6aR)-2-oxohexahydro-1H-thieno[3,4-d]imidazol-4-yl)pentanamido)pentyl)benzamide hydrochloride]",> 6.52
2,"Cl.NCc1cc(Oc2cccc(C(=O)NCCOCCOCCOCCOCCOCCOCCOCCOCCOCCOCCOCCNC(=O)CCCC[C@@H]3SC[C@@H]4NC(=O)N[C@@H]43)c2)nc(C(F)(F)F)c1 [Compound 1-2, 3-((4-(Aminomethyl)-6-(trifluoromethyl)pyridin-2-yl)oxy)-N-(37-oxo-41-((3aS,4S,6aR)-2-oxohexahydro-1H-thieno[3,4-d]imidazol-4-yl)-3,6,9,12,15,18,21,24,27,30,33-undecaoxa-36-azahentetracontyl)benzamide hydrochloride]",> 6.52
3,"CN1/C(=C/C=C/C2=[N+](CCCCCC(=O)NCCCn3cc(CCCCNC(=O)c4cccc(Oc5cc(CN)cc(C(F)(F)F)n5)c4)nn3)c3ccccc3C2(C)C)C(C)(C)c2ccccc21 [Compound 1-3, 1-(6-((3-(4-(4-(3-((4-(Aminomethyl)-6-(trifluoromethyl)pyridin-2-yl)oxy)benzamido)butyl)-1H-1,2,3-triazol-1-yl)propyl)amino)-6-oxohexyl)-3,3-dimethyl-2-((1E,3E)-3-(1,3,3-trimethylindolin-2-ylidene)prop-1-en-1-yl)-3H-indol-1-ium chloride hydrochloride]",> 6.52
4,"CN1/C(=C/C=C/C=C/C2=[N+](CCCCCC(=O)NCCCn3cc(CCCCNC(=O)c4cccc(Oc5cc(CN)cc(C(F)(F)F)n5)c4)nn3)c3ccccc3C2(C)C)C(C)(C)c2ccccc21 [Compound 1-4, 1-(6-((3-(4-(4-(3-((4-(Aminomethyl)-6-(trifluoromethyl)pyridin-2-yl)oxy)benzamido)butyl)-1H-1,2,3-triazol-1-yl)propyl)amino)-6-oxohexyl)-3,3-dimethyl-2-((1E,3E,5E)-5-(1,3,3-trimethylindolin-2-ylidene)penta-1,3-dien-1-yl)-3H-indol-1-ium chloride hydrochloride]",> 6.52
5,"Cc1cc(=O)oc2cc(NC(=O)c3cccc(Oc4cc(CN)cc(C(F)(F)F)n4)c3)ccc12 [Compound 1-5, 3-((4-(Aminomethyl)-6-(trifluoromethyl)pyridin-2-yl)oxy)-N-(4-methyl-2-oxo-2H-chromen-7-yl)benzamide hydrochloride]",> 6.52
6,"CN(C)c1cccc2c(S(=O)(=O)Nc3cccc(Oc4cc(CN)cc(C(F)(F)F)n4)c3)cccc12 [Compound 1-6, N-(3-((4-(Aminomethyl)-6-(trifluoromethyl)pyridin-2-yl)oxy)phenyl)-5-(dimethylamino)naphthalene-1-sulfonamide hydrochloride]",6.00 to 6.52
7,"NCc1cc(Oc2cccc(C(=O)NCCOCCOCCOCCNC(=O)CCCC[C@@H]3SC[C@@H]4NC(=O)N[C@@H]43)c2)nc(C(F)(F)F)c1 [Compound 1-19, 3-((4-(Aminomethyl)-6-(trifluoromethyl)pyridin-2-yl)oxy)-N-(13-oxo-17-((3aS,4S,6aR)-2-oxohexahydro-1H-thieno[3,4-d]imidazol-4-yl)-3,6,9-trioxa-12-azaheptadecyl)benzamide hydrochloride]",> 6.52
8,"NCc1cc(Oc2cccc(C(=O)NCCNC(=O)CCCCCNC(=O)CCCCCNC(=O)CCCC[C@@H]3SC[C@@H]4NC(=O)N[C@@H]43)c2)nc(C(F)(F)F)c1 [Compound 1-20, 3-((4-(Aminomethyl)-6-(trifluoromethyl)pyridin-2-yl)oxy)-N-(2-(6-(6-(5-((3aS,4S,6aR)-2-oxohexahydro-1H-thieno[3,4-d]imidazol-4-yl)pentanamido)hexanamido)hexanamido)ethyl)benzamide hydrochloride]",> 6.52
9,"CC1(C)C(/C=C/C(=C/C=C2\N(CCCS(=O)(=O)O)c3ccc4c(S(=O)(=O)O)cc(S(=O)(=O)O)cc4c3C2(C)C)c2cccc(CCCCC(=O)NCCCCCCNC(=O)c3cccc(Oc4cc(CN)cc(C(F)(F)F)n4)c3)c2)=[N+](CCCS(=O)(=O)O)c2ccc3c(S(=O)(=O)O)cc(S(=O)(=O)O)cc3c21 [Compound 1-22, 3-(2-((1E,3Z,5Z)-3-(3-(5-((6-(3-((4-(Aminomethyl)-6-(trifluoromethyl)pyridin-2-yl)oxy)benzamido)hexyl)amino)-5-oxopentyl)phenyl)-5-(1,1-dimethyl-6,8-disulfo-3-(3-sulfopropyl)-1H-benzo[e]indol-2(3H)-ylidene)penta-1,3-dien-1-yl)-1,1-dimethyl-6,8-disulfo-1H-benzo[e]indol-3-ium-3-yl)propane-1-sulfonate trifluoroacetate]",< 6.00

# Molecular target: T1, LOXL2
# Assay: Erenna-based fluorescence magnetic bead assay for free/unbound LOXL2
# Assay type: binding
# Conditions: 34 nM Compound 1-2, 15 hours at room temperature
# Method: Following the incubation, 10 μg of streptavidin-coated magnetic microparticles (MPs) are added to each well and incubated for 30 min-2 hours at room temperature with shaking. The MPs are washed once using magnetic separation and 20 μL of a fluorescently conjugated anti-LOXL2 antibody is added to each well (for example, R&D Systems anti-LOXL2 Goat IgG polyclonal antibody conjugated to AlexaFluor 647) and incubated for 30 min-2 hours at room temperature with shaking. The MPs are washed four times with magnetic separation and transferred to a new plate. All liquid is aspirated from the plate and elution buffer added and incubated for 10 minutes at room temperature with shaking. The eluate is transferred to a 384 well assay plate containing neutralization buffer, sealed and read on Erenna®.
row,SMILES,signal of free/unbound LOXL2 versus LOXL2 concentration
1,"Cl.NCc1cc(Oc2cccc(C(=O)NCCOCCOCCOCCOCCOCCOCCOCCOCCOCCOCCOCCNC(=O)CCCC[C@@H]3SC[C@@H]4NC(=O)N[C@@H]43)c2)nc(C(F)(F)F)c1 [Compound 1-2, 3-((4-(Aminomethyl)-6-(trifluoromethyl)pyridin-2-yl)oxy)-N-(37-oxo-41-((3aS,4S,6aR)-2-oxohexahydro-1H-thieno[3,4-d]imidazol-4-yl)-3,6,9,12,15,18,21,24,27,30,33-undecaoxa-36-azahentetracontyl)benzamide hydrochloride]",linear increase in signal of free/unbound LOXL2 up to 500 pg/mL

# Tested on: not listed separately
# Assay: Compound tissue distribution studies with 18F-PET imaging
# Assay type: in vivo
# Conditions: 30-50 μCi intravenously, PET imaged 90-120 minutes, naïve or bleomycin-instilled mice
# Method: In these studies, naïve or bleomycin-instilled mice were injected with 30-50 μCi of Compound 1-13 (^18F-labeled) intravenously and were PET imaged for 90-120 minutes following injection of the radiolabel. These animals were then sacrificed at 2.5 hours post-administration of the ^18F-labeled Compound 1-13 and tissues and blood were analyzed by scintillation counting to determine concentration of radioactivity remaining.
# To determine specific binding, a subset of mice were administered a blocking dose of Compound 1-13a or vehicle (delivered at 60 mg/kg PO) at a suitable time point prior to the PET-ligand injection, such as 2.5-4 h prior.
row,SMILES,tissue distribution of the 18F-labeled ligand
1,"NCc1cc(Oc2cccc(C(=O)N3C[C@@H](O)[C@H]([18F])C3)c2)nc(C(F)(F)F)c1 [Compound 1-13, (3-((4-(Aminomethyl)-6-(trifluoromethyl)pyridin-2-yl)oxy)phenyl)((3R,4R)-3-^18fluoro-4-hydroxypyrrolidin-1-yl)methanone hydrochloride]","Highest initial concentrations of ligand were observed in liver, kidney and lung"
